Test systems include A498 renal; COLO 205 colon; HCT-15 colon; HT29 colon; OVCAR-8 ovarian; RPMI-8226 leukemia; SF-268 CNS; SF-295 CNS; SK-MEL-5 melanoma; SK-OV-3 ovarian.
What all share (test): NCI anticancer screen, dose series, 48 h

This is an account of results in PubChem BioAssay (NCI).

Molecules are shown by their SMILES.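 Where inhibition never reached the appropriate level, the endpoint shown equals the highest concentration tested. Otherwise, values were interpolated linearly from a five-concentration, 48-hour dose response in 96-well plates. At the GI50, growth is halved. TGI denotes the concentration required for complete inhibition of growth.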 A value given as a limit tells only on which side of the number the result lay.

As to `CSc1ncc2c(n1)-c1ccccc1OC2N1CCCC1` (configuration not stated), the TGI in the assay with A498 renal was 26.1 µM; in the assay with COLO 205 colon, above 100 µM; with HCT-15 colon, above 100 µM; in the assay with HT29 colon, above 100 µM; in the assay with OVCAR-8 ovarian, above 100 µM; in the assay with RPMI-8226 leukemia it was above 100 µM. Also, the TGI in the assay on SF-268 CNS, in the assay with SF-295 CNS, in the assay on SK-MEL-5 melanoma and with SK-OV-3 ovarian was above 100 µM each time.
For `O=C(NNC(=S)Nc1ccccc1)c1csc(NC(=S)NC2CCCCC2)n1`, the TGI in the assay on A498 renal, in the assay on COLO 205 colon, in the assay with HCT-15 colon, with HT29 colon, in the assay with OVCAR-8 ovarian and in the assay on RPMI-8226 leukemia was above 100 µM throughout. The TGI in the assay on SF-268 CNS was above 100 µM; in the assay on SF-295 CNS, above 100 µM; in the assay on SK-MEL-5 melanoma, 38.8 µM; in the assay on SK-OV-3 ovarian it was above 100 µM.
Take `N#CCc1nc(C#N)c(N)o1`: the TGI in the assay with A498 renal, in the assay with COLO 205 colon, with HCT-15 colon, with HT29 colon, in the assay with OVCAR-8 ovarian and in the assay with RPMI-8226 leukemia was above 100 µM in each case. Also, the TGI with SF-268 CNS, with SF-295 CNS, in the assay with SK-MEL-5 melanoma and in the assay with SK-OV-3 ovarian was above 100 µM in each case. In addition, the GI50 with RPMI-8226 leukemia and with SK-MEL-5 melanoma was above 100 µM throughout.
As for `O=C1C=CC(=O)c2ncccc21`, the TGI in the assay with A498 renal is 27.4 µM; with COLO 205 colon, 7.64 µM; with HCT-15 colon, 5.72 µM; with HT29 colon it was 16.7 µM; in the assay on OVCAR-8 ovarian, 26.5 µM; in the assay on RPMI-8226 leukemia it was above 22 µM. Further, the TGI in the assay on SF-268 CNS came out at 27.1 µM; with SF-295 CNS, 23.1 µM; with SK-MEL-5 melanoma, 18 µM; in the assay with SK-OV-3 ovarian it was 37.2 µM.
In the case of `COC(=O)C(C)Sc1nc2cc(Cl)ccc2s1` (configuration not stated), the TGI in the assay on A498 renal, in the assay with COLO 205 colon, with HCT-15 colon, in the assay on HT29 colon, in the assay with OVCAR-8 ovarian and in the assay with RPMI-8226 leukemia was above 100 µM each time. Further, the TGI in the assay with SF-268 CNS, with SF-295 CNS, in the assay on SK-MEL-5 melanoma and with SK-OV-3 ovarian was above 100 µM in each case.
Take `OCCN=C1Nc2ccc(Cl)cc2C(=S)N2CSC[C@@H]12`: the TGI with A498 renal, in the assay with COLO 205 colon, in the assay on HCT-15 colon, in the assay with HT29 colon, in the assay on OVCAR-8 ovarian and in the assay on RPMI-8226 leukemia was above 100 µM throughout. Further, the TGI in the assay with SF-268 CNS, in the assay with SF-295 CNS, with SK-MEL-5 melanoma and with SK-OV-3 ovarian was above 100 µM in each case.
With `CCOC(=O)c1c(N2CCOCC2)[nH]c(=O)c(C(c2ccc(OC)cc2)c2c(O)c(C(=O)OCC)c(N3CCOCC3)[nH]c2=O)c1O`, the TGI with A498 renal, in the assay on COLO 205 colon, in the assay with HCT-15 colon, in the assay on HT29 colon, in the assay on OVCAR-8 ovarian and in the assay with RPMI-8226 leukemia was above 100 µM each time. Moreover, the TGI in the assay with SF-268 CNS, in the assay with SF-295 CNS, in the assay with SK-MEL-5 melanoma and in the assay with SK-OV-3 ovarian was above 100 µM in each case.
As for `Cc1cc(S(=O)(=O)Nc2nnc3cc(C(F)(F)F)cc(C)n23)c(S)cc1Cl`, the TGI was 37.2 µM in the assay on A498 renal; above 100 µM in the assay with COLO 205 colon; above 100 µM in the assay on HCT-15 colon; above 100 µM in the assay with HT29 colon; above 100 µM with OVCAR-8 ovarian; above 100 µM in the assay on RPMI-8226 leukemia. For the same molecule, the TGI in the assay on SF-268 CNS is above 100 µM; with SF-295 CNS, above 100 µM; in the assay on SK-MEL-5 melanoma, above 100 µM; in the assay on SK-OV-3 ovarian, above 90.2 µM.
`C/C=C/[C@H]1O[C@@](OC)([C@@H](C)[C@H](O)[C@H](C)[C@H]2OC(=O)/C(OC)=C/C(C)=C/[C@@H](C)[C@@H](O)[C@@H](C)[C@@H](O)[C@H](C)C/C(C)=C/C=C/[C@@H]2OC)CC(OC2CC(O)C(OC(N)=O)C(C)O2)[C@@H]1C` (some centres not stated): the TGI was 21 µM in the assay on A498 renal; 1.8 µM in the assay on COLO 205 colon; 5.26 µM in the assay on HCT-15 colon; 1.17 µM in the assay on HT29 colon; 17.3 µM in the assay on OVCAR-8 ovarian; below 0.0378 µM with RPMI-8226 leukemia. For the same molecule, the TGI in the assay with SF-268 CNS was 22.3 µM; in the assay on SF-295 CNS, below 0.01 µM; with SK-MEL-5 melanoma, below 0.0433 µM; with SK-OV-3 ovarian, 20.7 µM.
As to `NC(N)=N/N=C/c1nc2sccn2c1[N+](=O)[O-]`, the TGI was above 100 µM in the assay with A498 renal; 29.7 µM in the assay on COLO 205 colon; above 100 µM in the assay on HCT-15 colon; 67.7 µM in the assay on HT29 colon; above 100 µM in the assay on OVCAR-8 ovarian; above 100 µM in the assay with RPMI-8226 leukemia. Further, the TGI with SF-268 CNS is above 100 µM; with SF-295 CNS it was above 100 µM; in the assay with SK-MEL-5 melanoma it was 33.9 µM; in the assay with SK-OV-3 ovarian, above 100 µM.
In the case of `CCOC(=O)c1sc2c(c1OC(=O)c1ccccc1)c(=O)n(-c1ccccc1)c(=S)n2-c1ccccc1`, the TGI was 31 µM with A498 renal; above 100 µM in the assay on COLO 205 colon; above 100 µM in the assay on HCT-15 colon; 38.1 µM in the assay with HT29 colon; above 100 µM in the assay with OVCAR-8 ovarian; above 100 µM with RPMI-8226 leukemia. In addition, the TGI with SF-268 CNS is above 100 µM; in the assay with SF-295 CNS, above 100 µM; in the assay on SK-MEL-5 melanoma, 49.7 µM; in the assay with SK-OV-3 ovarian, above 100 µM.
As to `CC(C)(C)N1Cc2ccccc2/C(=C/Sc2ccccc2)C1=O`, the TGI was 35.4 µM in the assay with A498 renal; 39 µM in the assay with COLO 205 colon; 37 µM with HCT-15 colon; 35.6 µM with HT29 colon; 22.3 µM in the assay on OVCAR-8 ovarian; 26 µM in the assay with RPMI-8226 leukemia. The TGI in the assay with SF-268 CNS worked out at 20.2 µM; with SF-295 CNS it was 33.8 µM; in the assay with SK-MEL-5 melanoma it was 20.2 µM; in the assay with SK-OV-3 ovarian it was 31.2 µM.
Take `COc1ccc(OC)c2cc(Cc3ccc(N(C)C)cc3)c(=O)c(Cc3ccc(N(C)C)cc3)cc12`: the TGI with A498 renal is 96.2 µM; with COLO 205 colon, above 100 µM; with HCT-15 colon, above 100 µM; in the assay on HT29 colon, above 100 µM; in the assay on OVCAR-8 ovarian it was above 100 µM; with RPMI-8226 leukemia, 84.5 µM. In addition, the TGI in the assay on SF-268 CNS, in the assay with SF-295 CNS, in the assay on SK-MEL-5 melanoma and in the assay with SK-OV-3 ovarian was above 100 µM in each case.
As for `O=[As](O)(O)c1cc(N=Nc2ccc(-c3ccc(N=Nc4cc([As](=O)(O)O)c(O)cc4O)cc3)cc2)c(O)cc1O`, the TGI in the assay with A498 renal was above 73.4 µM; with COLO 205 colon, above 100 µM; in the assay on HCT-15 colon, above 100 µM; in the assay on HT29 colon it was above 100 µM; in the assay on OVCAR-8 ovarian it was above 100 µM; in the assay on RPMI-8226 leukemia, above 100 µM. Also, the TGI in the assay on SF-268 CNS, in the assay with SF-295 CNS, with SK-MEL-5 melanoma and in the assay on SK-OV-3 ovarian was above 100 µM each time.
For `COC1/C=C/C(C)C(C(C)C(OC)C(C)CCC(=O)C(C)C(CCC(=O)O)OC)OC(=O)/C=C/C=C(\C)CC(OC)CC2=CC(=O)O[C@@H](C(C)C(OC)CC(OC)/C=C/C(C)C(OC)C1)[C@H]2O` (some centres not stated), the TGI is 0.343 µM in the assay on A498 renal; above 5 µM in the assay on COLO 205 colon; above 5 µM in the assay with HCT-15 colon; above 5 µM in the assay on HT29 colon; above 5 µM in the assay on OVCAR-8 ovarian; above 3.94 µM in the assay on RPMI-8226 leukemia. Also, the TGI is above 2.47 µM in the assay with SF-268 CNS, above 5 µM with SF-295 CNS, 2.88 µM with SK-MEL-5 melanoma and 4.06 µM in the assay with SK-OV-3 ovarian.
Take `OC1OC(c2ccco2)C(F)(F)C(F)(F)C1(F)F` (configuration not stated): the TGI in the assay with A498 renal, in the assay with COLO 205 colon, in the assay on HCT-15 colon, in the assay with HT29 colon, with OVCAR-8 ovarian and in the assay on RPMI-8226 leukemia was above 100 µM in each case. Further, the TGI was above 100 µM with SF-268 CNS, above 100 µM in the assay on SF-295 CNS, 89.1 µM in the assay with SK-MEL-5 melanoma and above 100 µM in the assay on SK-OV-3 ovarian.
